In patent publication US5834481A, “Heterotricyclically substituted phenyl-cyclohexane-carboxylic acid derivatives” (Bayer Aktiengesellschaft, priority 1993, dated 1998):

System: smooth muscle cells obtained from the aortas of rats
Experiment: Inhibition of the proliferation of smooth muscle cells (3H-thymidine incorporation)
Format: cell-based
Conditions: semi-maximum inhibition of the thymidine incorporation produced by 10% FCS; rat aortic smooth muscle cells
Protocol: Investigation of the inhibition of the proliferation of smooth muscle cells by the compounds according to the invention
To determine the antiproliferative action of the compounds, smooth muscle cells are used which are obtained from the aortas of rats by the media explant technique [R. Ross, J. Cell, Biol. 50, 172, 1971]. The cells are inoculated into suitable culture dishes, as a rule 96-hole plates, and cultured at 37° C. in 5% CO2 for 2-3 days in medium 199 containing, 7.5% FCS and 7.5% NCS, 2mM L-glutamine and 15 mM HEPES, pH 7.4. The cells are then synchronized for 2-3 days by withdrawal of serum and then stimulated into growth using […] or other factors. Test compounds are simultaneously added. After 16-20 hours, 1 μCi ^3 H-thymidine is added and after a further 4 hours the incorporation of this substance into the TCA-precipitable DNA of the cells is determined. To determine the IC50 values, the active compound concentration is calculated which, on sequential dilution of the active compound, causes semi-maximum inhibition of the thymidine incorporation produced by 10% FCS.

SMILES | IC50
Cc1cc(C)c2c3c(n(Cc4ccc(C5CCCCC5C(=O)N[C@H](CO)c5ccccc5)cc4)c2n1)CCCC3 (single isomer, unassigned) [Example 27] | 580 nM
O=C(N[C@H](CO)c1ccccc1)C1CCCCC1c1ccc(Cn2c3ccccc3c3ccncc32)cc1 (single isomer, unassigned) [Example 30] | 0.1 nM
O=C(N[C@H](CO)c1ccccc1)C1CCCCC1c1ccc(Cn2c3ccccc3c3cccnc32)cc1 (single isomer, unassigned) [Example 32] | 2 nM
O=C(N[C@H](CO)c1ccccc1)C1CCCCC1c1ccc(Cn2c3c(c4cccnc42)CCCCC3)cc1 (single isomer, unassigned) [Example 50] | 0.9 nM
